5 compounds from patent publication US20040266886A1, “Cosmetic and/or pharmaceutical superfatting preparations” (priority 2001, published 2004) can be followed below.

Read-outs that look alike come from different tables or passages of the source.

Data set [1] has as its system pig's epidermis. The settings on record: pH 5.5.
Experimental: (§1) Dermatological compatibility was evaluated by determining the transepidermal water loss (TEWL) in a pig's epidermis. To this end, defined pieces of skin were treated with the various test solutions for 30 minutes at 40° C. and the TEWL value was gravimetrically determined. The test solutions were mixtures of 17% by weight Plantapon® PS 10 (sodium lauryl ether sulfate and Lauryl Glycoside, Cognis Düsseldorf) with 1.5% by weight fatty acid partial glycerides (see Table 1) in preservative-containing water (WAS 10% by weight). The pH was adjusted to 5.5 with citric acid.
For data set [2], the system named is pig's epidermis. In words: Dermatological compatibility: transepidermal water loss (TEWL), gravimetric. To be noted: for TEWL [%-rel] = [treated/untreated * 100] − 100%: […] by weight fatty acid partial glyceride in 17% by weight Plantapon PS 10, pH 5.5, skin treated 30 minutes at 40° C., lower value = better compatibility.
Experimental: as §1

On to “Isostearic acid mono/diglyceride (65:35) [Example 7]”, for which the “TEWL [%-rel] = [treated/untreated * 100] − 100%” value in data set [1] is listed as 22.0 %-rel. For the compound `CCCCCCCCCCCC(=O)OCC(O)CO` (centres unmarked) [Example 4, Lauric acid monoglyceride (>90)], in data set [2], the “TEWL [%-rel] = [treated/untreated * 100] − 100%” value came to 10.5 %-rel. The same measure, in the same setting: in the case of “Isostearic acid monoglyceride (>90) [Example 8]” it was 18.5 %-rel.

With “Glycerol monocaprylate (>90) [Example 2]”, the “Transepidermal water loss / dermatological compatibility (in words)” value in data set [2] (compared with mixtures of 65% by weight monoglyceride and 35% by weight diglyceride) is reported as “very good compatibility”.

“Lauric acid mono/diglyceride (65:35) [Example 3]”: the “TEWL [%-rel] = [treated/untreated * 100] − 100%” value in data set [1] is reported as 20.5 %-rel.
